In ChEMBL document CHEMBL1150979, “DERIVATIVES OF 4-AMINO-PYRIDINE AS SELECTIVE THROMBIN INHIBITORS” (Bioorg Med Chem Lett, 1997):

Experiments:
Prothrombin = Prothrombin (Homo sapiens, UniProt P00734)
Description: Tested for the Inhibition of the catalytic activity of human Thrombin at 25 degree C and pH 7.5.

Plasminogen = Plasminogen (Homo sapiens, UniProt P00747); assay: Tested for the Inhibition of the catalytic activity of human plasmin at 25 degree C and pH 7.5.
Serine protease 1 = target: T1, Serine protease 1 (Bos taurus, UniProt P00760); assay: Tested for the Inhibition of the catalytic activity of bovine trypsin at 25 degree C and pH 7.5.
T1 sequence (P00760 whole entry): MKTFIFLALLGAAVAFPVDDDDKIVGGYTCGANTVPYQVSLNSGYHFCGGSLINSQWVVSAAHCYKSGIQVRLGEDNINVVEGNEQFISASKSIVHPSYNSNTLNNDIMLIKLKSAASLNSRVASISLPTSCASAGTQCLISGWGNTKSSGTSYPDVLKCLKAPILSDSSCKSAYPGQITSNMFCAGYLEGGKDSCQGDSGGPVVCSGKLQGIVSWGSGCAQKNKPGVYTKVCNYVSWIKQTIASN

Chain of Plasminogen (P00747 97-580 limits assumed): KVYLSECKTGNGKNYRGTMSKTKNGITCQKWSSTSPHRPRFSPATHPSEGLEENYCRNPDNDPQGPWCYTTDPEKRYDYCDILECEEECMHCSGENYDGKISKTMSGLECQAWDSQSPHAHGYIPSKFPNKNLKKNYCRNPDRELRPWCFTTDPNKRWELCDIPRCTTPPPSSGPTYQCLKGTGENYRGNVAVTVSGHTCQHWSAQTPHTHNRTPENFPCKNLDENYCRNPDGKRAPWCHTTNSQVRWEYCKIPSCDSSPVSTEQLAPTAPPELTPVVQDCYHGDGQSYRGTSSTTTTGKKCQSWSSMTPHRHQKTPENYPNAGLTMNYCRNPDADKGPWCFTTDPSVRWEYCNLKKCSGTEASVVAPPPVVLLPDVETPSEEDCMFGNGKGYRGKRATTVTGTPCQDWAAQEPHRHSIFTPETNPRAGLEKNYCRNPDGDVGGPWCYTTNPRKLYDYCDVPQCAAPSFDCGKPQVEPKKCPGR
Chain of Plasminogen (P00747 581-810 limits assumed): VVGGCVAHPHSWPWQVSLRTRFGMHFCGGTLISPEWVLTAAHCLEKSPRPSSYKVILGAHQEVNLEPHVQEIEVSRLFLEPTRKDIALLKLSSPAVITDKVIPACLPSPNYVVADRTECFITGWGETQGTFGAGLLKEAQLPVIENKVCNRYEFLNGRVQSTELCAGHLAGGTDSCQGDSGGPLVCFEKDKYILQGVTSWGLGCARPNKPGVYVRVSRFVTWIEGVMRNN

| SMILES | Ki (Prothrombin) [µM] | Ki (Plasminogen) [µM] | Ki (Serine protease 1) [µM] |
| --- | --- | --- | --- |
| Cc1cccc(OCCNc2ccncc2)c1 | 30 | > 500 | > 500 |
| O=S(=O)(Nc1cccc(OCCNc2ccncc2)c1)c1ccc2ccccc2c1 | 7 | > 500 | > 500 |
| O=C(CNS(=O)(=O)c1ccc2ccccc2c1)N[C@H](CCNc1ccncc1)C(=O)N1CCCCC1 | 0.2 | > 500 | > 500 |
| N=C(N)c1ccc(COc2cccc(CCNS(=O)(=O)c3ccc(Cl)cc3)c2)cc1 | 1.5 | 34 | 1.7 |
| CN(c1cccc(OCCNc2ccncc2)c1)S(=O)(=O)c1ccccc1 | 0.07 | > 500 | > 500 |
| OCCNc1ccncc1 | > 500 | > 500 | > 500 |
| O=C(CNS(=O)(=O)c1ccc(Cl)cc1)N[C@H](CCNc1ccncc1)C(=O)N1CCCCC1 | 2 | > 500 | > 500 |
| O=C(CNS(=O)(=O)c1ccccc1)N[C@H](CCNc1ccncc1)C(=O)N1CCCCC1 | 10 | > 500 | > 500 |
| O=S(=O)(NCCc1cccc(OCCNc2ccncc2)c1)c1ccc(Cl)cc1 | 2.8 | > 500 | > 500 |
| O=C(CNS(=O)(=O)c1ccc2ccccc2c1)N[C@@H](CCNc1ccncc1)C(=O)N1CCCCC1 | 300 | > 500 | > 500 |
| O=S(=O)(Nc1cccc(OCCNc2ccncc2)c1)c1ccc(Cl)cc1 | 0.7 | > 500 | > 500 |
| c1ccc(OCCNc2ccncc2)cc1 | 120 | > 500 | > 500 |
| O=S(=O)(Nc1cccc(OCCNc2ccncc2)c1)c1ccccc1 | 0.3 | > 500 | > 500 |
| Nc1ccncc1 [DALFAMPRIDINE] | > 2000 | > 2000 | > 2000 |
